From patent US11807649B2, “Fused tetracyclic quinazoline derivatives as inhibitors of ErbB2” (EnLiven Therapeutics, Inc., priority 2021, dated 2023)

tested on: Ba/F3 ERBB2 YVMA; assay: Cell viability assay (CellTiter Glo), Ba/F3 cells engineered to express ERBB2 YVMA; type: cell-based; conditions: Mus musculus, BaF3, 72 h, Ba/F3 cells expressing human ERBB2 YVMA mutant; 72 hours; cell viability, CellTiter Glo; read-out: Ba/F3 ERBB2 YVMA, IC50
Procedure: Cells were treated with compounds, and cell viability was measured as a metric of kinase inhibition.
BT-474, A431, MDA-MB-175VII, NCI-H1781, MCF7, and Ba/F3 cell lines were tested. The Ba/F3 cell line is IL-3-dependent mouse cell line derived from the C3H mouse strain. Ba/F3 cell lines were engineered to express human ERBB2 or EGFR kinases, rendering the cells IL-3 independent. The lines were generated via retroviral transduction utilizing a Moloney murine leukemia virus (MMLV) promoter, and constructs are stably integrated into the cell genome. The sequences of the ERBB2 and EGFR genes used were NCBI Reference Sequences NM 004448.3 and NM 005228.3, respectively.
BT-474, A431, MDA-MB-175VII, NCI-H1781 and MCF7 cells were grown in the appropriate growth medium as described in Table B2 below, and harvested at 50-80% confluence. BT-474, A431, MDA-MB-175VII, NCI-H1781 and MCF7 cells were counted and seeded at 2,000 or 1,500 cells per well in 384-well tissue culture plates (see Table B2). Similarly, Ba/F3 cell lines engineered to express EGFR, ERBB2, or ERBB2 mutants were grown, harvested, counted and seeded at 3000 cells per well in 96-well plates. A subset of wells contained media only (low control, “LC”).
Table B1 provides the growth media and number of cells seeded per well for the each cell line.
Compounds were dissolved in DMSO and serially diluted. Serially-diluted compound or a DMSO only control (high control, “HC”) was added to the plated cells in each well. Compounds were tested at concentrations of about 10 μM to 0.51 nM, using three-fold dilutions. The final proportion of DMSO never exceeded 0.1%.
Plates were placed in a 37° C., 5% CO2 incubator for 72 hours. Plates were then removed from the incubator and equilibrated for 15 minutes at room temperature. […] of CellTiter Glo reagent (Promega) was added to measure the relative level of metabolically active cells by quantifying intracellular ATP concentrations. Plates were incubated for 30 minutes at room temperature, and luminescence was measured. Percent viability was normalized to a vehicle control only using the following formula: % viability=100×(Lumsample−LumLC)/(LumHC−LumLC). Graphical curves were fitted using a nonlinear regression model with a sigmoidal dose response.

In order of falling IC50:
1. Cc1cc(Nc2ncnc3cc4c(nc23)N2CCN(C(=O)/C=C/CN(C)C)CC(CO4)C2)ccc1Oc1ccn2ncnc2c1 (stereo not drawn) [Compound 57, (E)-1-(4-((4-([1,2,4]triazolo[1,5-a]pyridin-7-yloxy)-3-methylphenyl)amino)-7,8,11,12-tetrahydro-6,11-methanopyrimido[4′,5′:5,6]pyrido[3,2-b][1,4,7]oxadiazecin-9(10H)-yl)-4-(dimethylamino)but-2-en-1-one]  173 nM
2. Cc1cc(Nc2ncnc3cc4c(nc23)N2CCN(C(=O)/C=C/C3(F)CN(C)C3)[C@H](CO4)C2)ccc1Oc1ccn2ncnc2c1 [Compound 53, (E)-1-((10S)-4-((4-([1,2,4]triazolo[1,5-a]pyridin-7-yloxy)-3-methylphenyl)amino)-7,8,10,11-tetrahydro-9H-6,10-methanopyrimido[4′,5′:5,6]pyrido[3,2-b][1,4,7]oxadiazonin-9-yl)-3-(3-fluoro-1-methylazetidin-3-yl)prop-2-en-1-one]  117 nM
3. Cc1cc(Nc2ncnc3cc4c(nc23)N2CCN(C(=O)/C=C/CN(C)C)C(CCO4)C2)ccc1Oc1ccn2ncnc2c1 (stereo not drawn) [Compound 52, (E)-1-(4-((4-([1,2,4]triazolo[1,5-a]pyridin-7-yloxy)-3-methylphenyl)amino)-7,8,11,12-tetrahydro-6,10-methanopyrimido[4′,5′:5,6]pyrido[3,2-b][1,4,7]oxadiazecin-9(10H)-yl)-4-(dimethylamino)but-2-en-1-one]  109 nM
4. Cc1cc(Nc2ncnc3ccc(NC4=NC(C)(C)CO4)cc23)ccc1Oc1ccn2ncnc2c1 [Tucatinib, tucatinib, reference compound]  105 nM
5. Cc1cc(Nc2ncnc3cc4c(nc23)N2CCN(C(=O)/C=C/[C@@H](C)N(C)C)[C@H](CO4)C2)c(F)cc1Oc1ccn2ncnc2c1 [Compound 50, (4R,E)-1-((10S)-4-((4-([1,2,4]triazolo[1,5-a]pyridin-7-yloxy)-2-fluoro-5-methylphenyl)amino)-7,8,10,11-tetrahydro-9H-6,10-methanopyrimido[4′,5′:5,6]pyrido[3,2-b][1,4,7]oxadiazonin-9-yl)-4-(dimethylamino)pent-2-en-1-one]  62.6 nM
6. Cc1cc(Nc2ncnc3cc4c(nc23)N2CCN(C(=O)/C=C/C3CN(C)C3)[C@H](CO4)C2)ccc1Oc1ccn2ncnc2c1 [Compound 45, (E)-1-((10S)-4-((4-([1,2,4]triazolo[1,5-a]pyridin-7-yloxy)-3-methylphenyl)amino)-7,8,10,11-tetrahydro-9H-6,10-methanopyrimido[4′,5′:5,6]pyrido[3,2-b][1,4,7]oxadiazonin-9-yl)-3-(1-methylazetidin-3-yl)prop-2-en-1-one]  46.7 nM
7. CNC/C=C/C(=O)N1CCN2C[C@H]1COc1cc3ncnc(Nc4cc(C)c(Oc5ccn6ncnc6c5)cc4F)c3nc12 [Compound 49, (E)-1-((10S)-4-((4-([1,2,4]triazolo[1,5-a]pyridin-7-yloxy)-2-fluoro-5-methylphenyl)amino)-7,8,10,11-tetrahydro-9H-6,10-methanopyrimido[4′,5′:5,6]pyrido[3,2-b][1,4,7]oxadiazonin-9-yl)-4-(methylamino)but-2-en-1-one]  37.6 nM
8. Cc1cc(Nc2ncnc3cc4c(nc23)N2CCN(C(=O)/C=C/[C@H](C)N(C)C)[C@H](CO4)C2)c(F)cc1Oc1ccn2ncnc2c1 [Compound 47, (4S,E)-1-((10S)-4-((4-([1,2,4]triazolo[1,5-a]pyridin-7-yloxy)-2-fluoro-5-methylphenyl)amino)-7,8,10,11-tetrahydro-9H-6,10-methanopyrimido[4′,5′:5,6]pyrido[3,2-b][1,4,7]oxadiazonin-9-yl)-4-(dimethylamino)pent-2-en-1-one]  13 nM
9. Cc1cc(Nc2ncnc3cc4c(nc23)N2CCN(C(=O)/C=C/CN(C)C)[C@H](CO4)C2)ccc1Oc1cncc(F)c1 [Compound 51]  3.37 nM

same assay, conditions: Mus musculus, BaF3, 72 h, read-out: Ba/F3 ERBB2 YVMA, IC50, nM

Going from `C=CC(=O)N1CCN2C[C@@H]1COc1cc3ncnc(Nc4ccc(Cc5ccn6ncnc6c5)c(C)c4)c3nc12` [Compound 19] to `CN(C)C/C=C/C(=O)N1CCN2C[C@H]1COc1cc3ncnc(Nc4cc(F)c(Oc5ccn6ncnc6c5)cc4F)c3nc12` [Compound 48, (E)-1-((10S)-4-((4-([1,2,4]triazolo[1,5-a]pyridin-7-yloxy)-2,5-difluorophenyl)amino)-7,8,10,11-tetrahydro-9H-6,10-methanopyrimido[4′,5′:5,6]pyrido[3,2-b][1,4,7]oxadiazonin-9-yl)-4-(dimethylamino)but-2-en-1-one], the IC50 falls from greater than 500 nM to 4.85 nM. The second is the more potent here.

In the case of `CCOc1cc2ncc(C#N)c(Nc3ccc(OCc4ccccn4)c(Cl)c3)c2cc1NC(=O)/C=C/CN(C)C` [Neratinib, neratinib, reference compound], the IC50 is reported as 3.5 nM.

target: phosphorylated ERBB2 (pERBB2) (Homo sapiens (Human), UniProt P04626); assay: Detection of phosphorylated ERBB2 (pERBB2) by ELISA in BT-474 cells; type: cell-based; conditions: four hours incubation with compound
Sequence (P04626 23-1255): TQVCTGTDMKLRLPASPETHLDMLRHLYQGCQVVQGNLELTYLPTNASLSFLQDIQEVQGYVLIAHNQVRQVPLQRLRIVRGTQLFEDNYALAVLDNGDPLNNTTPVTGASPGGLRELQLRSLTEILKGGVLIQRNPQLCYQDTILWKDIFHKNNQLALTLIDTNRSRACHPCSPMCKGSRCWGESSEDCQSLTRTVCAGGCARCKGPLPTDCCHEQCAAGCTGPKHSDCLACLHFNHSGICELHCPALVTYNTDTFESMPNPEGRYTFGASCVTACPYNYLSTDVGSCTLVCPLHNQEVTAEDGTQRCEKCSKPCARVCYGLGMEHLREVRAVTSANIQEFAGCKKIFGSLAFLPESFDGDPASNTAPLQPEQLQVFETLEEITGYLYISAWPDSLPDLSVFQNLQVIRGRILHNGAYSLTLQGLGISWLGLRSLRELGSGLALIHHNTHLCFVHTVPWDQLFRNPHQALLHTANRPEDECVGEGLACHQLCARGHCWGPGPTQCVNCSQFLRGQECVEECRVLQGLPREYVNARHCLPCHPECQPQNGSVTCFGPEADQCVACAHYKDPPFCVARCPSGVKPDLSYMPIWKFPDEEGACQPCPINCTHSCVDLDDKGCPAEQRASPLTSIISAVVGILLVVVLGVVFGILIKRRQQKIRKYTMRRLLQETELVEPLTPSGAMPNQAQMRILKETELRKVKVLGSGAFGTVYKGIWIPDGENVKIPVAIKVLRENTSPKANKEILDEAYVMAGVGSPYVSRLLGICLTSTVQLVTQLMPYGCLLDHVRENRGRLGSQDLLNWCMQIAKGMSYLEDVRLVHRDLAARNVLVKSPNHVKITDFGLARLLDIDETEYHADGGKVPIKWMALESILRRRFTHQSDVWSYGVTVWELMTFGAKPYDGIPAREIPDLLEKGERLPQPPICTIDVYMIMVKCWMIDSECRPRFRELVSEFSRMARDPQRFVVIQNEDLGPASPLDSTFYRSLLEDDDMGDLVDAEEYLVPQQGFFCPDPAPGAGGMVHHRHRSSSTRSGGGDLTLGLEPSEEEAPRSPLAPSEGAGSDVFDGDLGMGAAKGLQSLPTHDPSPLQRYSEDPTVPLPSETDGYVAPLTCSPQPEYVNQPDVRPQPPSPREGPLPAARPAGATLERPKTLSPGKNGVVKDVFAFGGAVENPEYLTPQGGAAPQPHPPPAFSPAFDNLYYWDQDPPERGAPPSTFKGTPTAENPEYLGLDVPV
Procedure: BT-474 cells were seeded into a 96-well at 2.0*10^4 cells/100 μl/well. Compounds were dissolved and serially diluted in DMSO. The compounds were then were added, mixed, and incubated for four hours at 37° C., 5% CO2. […] Following the four hour incubation with compounds, cell lysates were prepared. Plates were centrifuged for 5 min at 3000 RPM, and supernatant was removed from each well. Cells were washed 3 times by resuspension in 150 μl PBS, followed by centrifugation and removal of the supernatant, as above. 100 μl of cell lysis buffer (Boston BioProducts, cat #BP-115D) supplied with 1× complete ULTRA cocktail inhibitor (Thermo ScientificTM, cat #78443) was then added to the washed cells. Cells were incubated with lysis buffer for 1 hour at 4° C., and then stored at -80° C. Enzyme-linked immunosorbent assays (ELISA) were performed to measure phosphorylated ERBB2 levels. […] The next day, plates were washed with PBS+0.05% Tween20 (PBST). 150 μl of 5% BSA blocking solution was added for 1 hour at room temperature, with shaking. Plates were washed with PB ST. Cell lysates were thawed and 100 μl of lysate was added to the ELISA plate. The plates were incubated for 2 hours at room temperature, with shaking. ELISA plates were then washed with PBST and 100 μl of an HRP-labeled detection antibody that binds phosphorylated tyrosine (R&D Systems, cat #841913) was added to each well. Plates were incubated for 1 hour at room temperature, with shaking. Plates were then washed with PBST, and 100 μl TMB substrate solution (R&D Systems, cat #DY999) was added. Plate were incubated in the dark for 20 minutes at room temperature. 50 μl of Stop solution (R&D Systems, cat #DY994) (50 μl) was added to each well and mixed. […] The remaining kinase activity by calculated using the following formula: % Relative activity=100×([…]). The low and high control values (“LC” and “HC”) were generated from lysate from wells without cells or with cells treated with 0.1% DMSO, respectively.

In order of falling IC50:
1. Cc1cc(Nc2ncnc3cc4c(nc23)N2CCCN(C(=O)/C=C/CN(C)C)C(CO4)C2)ccc1Oc1ccn2ncnc2c1 (single isomer, unassigned) [Example S55, Enantiomer 2, (E)-1-(4-((4-([1,2,4]triazolo[1,5-a]pyridin-7-yloxy)-3-methylphenyl)amino)-8,9,11,12-tetrahydro-6,11-methanopyrimido[4′,5′:5,6]pyrido[3,2-b][1,4,8]oxadiazecin-10(7H)-yl)-4-(dimethylamino)but-2-en-1-one]  304 nM
2. Cc1cc(Nc2ncnc3cc4c(nc23)N2CCCN(C(=O)/C=C/CN(C)C)C(CO4)C2)ccc1Oc1ccn2ncnc2c1 (single isomer, unassigned) [Example S55, Enantiomer 1, (E)-1-(4-((4-([1,2,4]triazolo[1,5-a]pyridin-7-yloxy)-3-methylphenyl)amino)-8,9,11,12-tetrahydro-6,11-methanopyrimido[4′,5′:5,6]pyrido[3,2-b][1,4,8]oxadiazecin-10(7H)-yl)-4-(dimethylamino)but-2-en-1-one]  17.4 nM

target: phosphorylated EGFR (pEGFR) (Homo sapiens (Human), UniProt P00533); assay: Detection of phosphorylated EGFR (pEGFR) in EGF-stimulated A431 cells (AlphaLISA); type: cell-based; conditions: A431 cells (10% FBS), 4 hours incubation, then EGF 30 ng/mL for 10 minutes
Sequence (P00533 25-1210): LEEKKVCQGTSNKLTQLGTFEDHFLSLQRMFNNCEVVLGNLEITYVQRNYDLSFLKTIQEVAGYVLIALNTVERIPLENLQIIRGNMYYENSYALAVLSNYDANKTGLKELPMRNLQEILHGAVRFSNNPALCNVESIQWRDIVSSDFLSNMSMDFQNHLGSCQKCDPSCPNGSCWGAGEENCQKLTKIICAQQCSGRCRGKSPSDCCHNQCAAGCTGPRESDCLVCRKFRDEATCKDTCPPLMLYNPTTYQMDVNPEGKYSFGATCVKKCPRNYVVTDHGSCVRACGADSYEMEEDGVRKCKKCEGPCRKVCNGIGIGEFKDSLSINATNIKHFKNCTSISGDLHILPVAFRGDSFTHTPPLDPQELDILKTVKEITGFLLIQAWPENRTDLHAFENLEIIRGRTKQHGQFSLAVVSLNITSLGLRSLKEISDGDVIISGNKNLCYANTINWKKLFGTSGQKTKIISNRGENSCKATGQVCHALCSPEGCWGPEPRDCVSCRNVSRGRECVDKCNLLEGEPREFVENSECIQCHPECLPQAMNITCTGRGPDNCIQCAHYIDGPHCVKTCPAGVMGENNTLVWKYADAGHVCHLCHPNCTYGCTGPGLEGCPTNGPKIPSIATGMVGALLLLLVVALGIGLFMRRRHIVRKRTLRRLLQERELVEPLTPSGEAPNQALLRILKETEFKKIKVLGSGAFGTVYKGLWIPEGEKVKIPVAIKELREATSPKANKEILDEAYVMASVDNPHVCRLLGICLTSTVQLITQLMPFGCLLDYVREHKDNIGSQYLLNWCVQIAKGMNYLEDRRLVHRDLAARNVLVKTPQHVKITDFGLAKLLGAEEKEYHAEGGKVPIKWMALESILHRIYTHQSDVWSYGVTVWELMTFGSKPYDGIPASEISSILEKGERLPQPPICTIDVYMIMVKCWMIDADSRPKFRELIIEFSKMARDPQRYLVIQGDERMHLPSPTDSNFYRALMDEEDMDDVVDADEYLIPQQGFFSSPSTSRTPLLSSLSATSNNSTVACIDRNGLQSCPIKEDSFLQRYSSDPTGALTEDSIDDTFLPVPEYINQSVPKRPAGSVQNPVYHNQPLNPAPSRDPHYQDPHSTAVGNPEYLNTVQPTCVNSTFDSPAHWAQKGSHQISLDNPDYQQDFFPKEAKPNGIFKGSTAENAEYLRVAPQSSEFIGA
Procedure: […] were performed to measure phosphorylated EGFR levels using A431 cells (10% FBS). A431 (1.0*10^4 cells/40 μl/well) cells were seeded in 384 well. Compounds were dissolved in DMSO, serially diluted in DMSO and then were added, mixed, and incubated for 4 hours at 37° C., 5% CO2. Following the 4-hours incubation, cells were stimulated for 10 minutes with EGF (Invitrogen, cat #PHG0311) at a final concentration of 30 ng/mL in the incubator. The media was aspirated and cells were lysed in […] lysis buffer with protease and phosphatase inhibitors (PerkinElmer, cat #ALSU-PEGFR-A50K). The plates were placed on a shaker for 5 minutes and then incubated for 30 min at 4° C. for complete lysis. The lysate was transferred to an Optiplate (Perkin Elmer, cat #6007290).
Acceptor mix (PerkinElmer, cat #ALSU-PEGFR-A50K) was prepared just before use and 5 μL was dispensed to all the wells, followed by a 1.5-2 h incubation at room temperature in dark. The donor mix (PerkinElmer, cat #ALSU-PEGFR-A50K) was prepared under low light conditions prior to use and […] of donor mix was added to all the wells under subdued lighting or green filters. The plates were placed on a shaker for 5 min, sealed, and incubated overnight at room temperature in dark. Plates were read on the Envision (PerkinElmer) using standard AlphaLISA settings.
The percentage of inhibition on EGFR phosphorylation was calculated following equation: % Inhibition=100×(LumHC−LumSample)/(LumHC−LumLC). The low and high controls (LC/HC) are generated from lysate from wells with cells treated with DMSO or […] Staurosporine (BioAustralis, cat #BIA-S1086), […]. IC50 values were calculated by fitting the Curve using XLfit (v5.3.1.3), equation 201: Y=Bottom+(Top−Bottom)/(1+10^((Log IC50−X)*HillSlope)).

`C=CC(=O)N1CCN2C[C@@H]1COc1cc3ncnc(Nc4ccc(Cc5ccn6ncnc6c5)c(C)c4)c3nc12` [Compound 19] was tested, and the IC50 was greater than 10000 nM.
